Values of other authors as cited in paper PMC10504495 (iScience, 2023).

How the values were obtained:
[1] = system: pan-Kla; settings: cells treated with nicotinamide; cited from earlier work
Description: (§1) Histone deacetylases (HDACs), including HDACs and Sirtuin family proteins, are well studied PTM erasers that regulate gene transcription. Recently, Moreno-Yruela et al. discovered that class I HDACs (HDAC1-3), especially HDAC3, are effective lactylation erasers.[5] […] The authors also treated cells with HDAC inhibitors (butyrate, trichostatin A, and apicidin) and a Sirtuin pan-inhibitor (nicotinamide) to compare the intracellular delactylation activities between HDACs and Sirtu ...

[2] = system: pan-Kac; settings: cells treated with nicotinamide; cited from earlier work
Description: as §1

NC(=O)c1cccnc1 [nicotinamide]
pan-Kla level change [1]: unable to induce Sirtuin-regulated pan-Kla increasement | pan-Kac level change [2]: unchanged
